System: 556581-035-R-J1-PDC spheroids with HUVEC/MSC, viability
Test: Anticancer human tumor 556581-035-R-J1-PDC patient-derived ovarian carcinoma cell line growth inhibition [IpAb]
Details: for IC50: curve of first compound; for viability, T/C: stronger effect = lower value
Method in brief: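 Multi-cell spheroids of 60% tumour cells, 25% HUVEC and 15% MSC in ultra-low-attachment U-bottom wells, treated with agents combined with ipatasertib or abemaciclib. Half-log ranges top out near clinical Cmax, or 10 microM when Cmax is unknown.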
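Note: spheroids exposed to compounds for 7 days before readout.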

CC(C)n1nc(-c2ccc3oc(N)nc3c2)c2c(N)ncnc21 + CC(C)NCC(C(=O)N1CCN(c2ncnc3c2C(C)CC3O)CC1)c1ccc(Cl)cc1
IC50 (second compound 0.1 µM): 6.46 nM | IC50 (second compound 0.316 µM): 6 nM | IC50 (second compound 1 µM): 3.58 nM | IC50 (second compound 3.16 µM): 1.47 nM | IC50 (second compound 10 µM): < 0.316 nM | viability, T/C (second compound 0.1 µM, first compound 0.000316 µM): 87.8% | viability, T/C (second compound 0.1 µM, first compound 0.001 µM): 68.8% | viability, T/C (second compound 0.1 µM, first compound 0.00316 µM): 60.1% | viability, T/C (second compound 0.1 µM, first compound 0.01 µM): 47.6% | viability, T/C (second compound 0.1 µM, first compound 0.0316 µM): 29.3% | viability, T/C (second compound 0.1 µM, first compound 0.1 µM): 24.7% | viability, T/C (second compound 0.316 µM, first compound 0.000316 µM): 69.5% | viability, T/C (second compound 0.316 µM, first compound 0.001 µM): 65.1% | viability, T/C (second compound 0.316 µM, first compound 0.00316 µM): 58% | viability, T/C (second compound 0.316 µM, first compound 0.01 µM): 40.9% | viability, T/C (second compound 0.316 µM, first compound 0.0316 µM): 36.6% | viability, T/C (second compound 0.316 µM, first compound 0.1 µM): 21.3% | viability, T/C (second compound 1 µM, first compound 0.000316 µM): 58.6% | viability, T/C (second compound 1 µM, first compound 0.001 µM): 67.1% | viability, T/C (second compound 1 µM, first compound 0.00316 µM): 50.4% | viability, T/C (second compound 1 µM, first compound 0.01 µM): 34% | viability, T/C (second compound 1 µM, first compound 0.0316 µM): 28.6% | viability, T/C (second compound 1 µM, first compound 0.1 µM): 25.2% | viability, T/C (second compound 3.16 µM, first compound 0.000316 µM): 63.4% | viability, T/C (second compound 3.16 µM, first compound 0.001 µM): 52.4% | viability, T/C (second compound 3.16 µM, first compound 0.00316 µM): 44.1% | viability, T/C (second compound 3.16 µM, first compound 0.01 µM): 34.1% | viability, T/C (second compound 3.16 µM, first compound 0.0316 µM): 27.5% | viability, T/C (second compound 3.16 µM, first compound 0.1 µM): 18.5% | viability, T/C (second compound 10 µM, first compound 0.000316 µM): 48% | viability, T/C (second compound 10 µM, first compound 0.001 µM): 44% | viability, T/C (second compound 10 µM, first compound 0.00316 µM): 36.8% | viability, T/C (second compound 10 µM, first compound 0.01 µM): 25.7% | viability, T/C (second compound 10 µM, first compound 0.0316 µM): 17.1% | viability, T/C (second compound 10 µM, first compound 0.1 µM): 16.4%

Cn1cnc2c(F)c(Nc3ccc(Br)cc3Cl)c(C(=O)NOCCO)cc21 + CC(C)NCC(C(=O)N1CCN(c2ncnc3c2C(C)CC3O)CC1)c1ccc(Cl)cc1
IC50 (second compound 0.1 µM): 473 nM | IC50 (second compound 0.316 µM): 218 nM | IC50 (second compound 1 µM): 55.3 nM | IC50 (second compound 3.16 µM): < 9.49 nM | IC50 (second compound 10 µM): < 9.49 nM | viability, T/C (second compound 0.1 µM, first compound 0.00949 µM): 91.4% | viability, T/C (second compound 0.1 µM, first compound 0.03 µM): 89.3% | viability, T/C (second compound 0.1 µM, first compound 0.0949 µM): 81.6% | viability, T/C (second compound 0.1 µM, first compound 0.3 µM): 55.5% | viability, T/C (second compound 0.1 µM, first compound 0.949 µM): 38.1% | viability, T/C (second compound 0.1 µM, first compound 3 µM): 14.7% | viability, T/C (second compound 0.316 µM, first compound 0.00949 µM): 69.1% | viability, T/C (second compound 0.316 µM, first compound 0.03 µM): 60.5% | viability, T/C (second compound 0.316 µM, first compound 0.0949 µM): 61% | viability, T/C (second compound 0.316 µM, first compound 0.3 µM): 46.4% | viability, T/C (second compound 0.316 µM, first compound 0.949 µM): 28.6% | viability, T/C (second compound 0.316 µM, first compound 3 µM): 14.2% | viability, T/C (second compound 1 µM, first compound 0.00949 µM): 59.7% | viability, T/C (second compound 1 µM, first compound 0.03 µM): 55.6% | viability, T/C (second compound 1 µM, first compound 0.0949 µM): 46.1% | viability, T/C (second compound 1 µM, first compound 0.3 µM): 31.7% | viability, T/C (second compound 1 µM, first compound 0.949 µM): 20.4% | viability, T/C (second compound 1 µM, first compound 3 µM): 7.02% | viability, T/C (second compound 3.16 µM, first compound 0.00949 µM): 45.9% | viability, T/C (second compound 3.16 µM, first compound 0.03 µM): 40.7% | viability, T/C (second compound 3.16 µM, first compound 0.0949 µM): 33.9% | viability, T/C (second compound 3.16 µM, first compound 0.3 µM): 25% | viability, T/C (second compound 3.16 µM, first compound 0.949 µM): 15.4% | viability, T/C (second compound 3.16 µM, first compound 3 µM): 6.95% | viability, T/C (second compound 10 µM, first compound 0.00949 µM): 37.3% | viability, T/C (second compound 10 µM, first compound 0.03 µM): 38.6% | viability, T/C (second compound 10 µM, first compound 0.0949 µM): 29.6% | viability, T/C (second compound 10 µM, first compound 0.3 µM): 21.2% | viability, T/C (second compound 10 µM, first compound 0.949 µM): 13.8% | viability, T/C (second compound 10 µM, first compound 3 µM): 3.58%
